How the values were obtained:
[1] = target: Casein kinase I isoform gamma-2 (Homo sapiens) (UniProt P78368); assay: Selectivity interaction (KinomeScan (DiscoverX)) EUB0000092b CSNK1G2; settings: at 10 µM
[2] = target: L-type calcium channel Cav1.2 (CACNA1C) (Homo sapiens, UniProt Q13936); assay: Selectivity interaction (Panel of kinases, GPCRs, ion channels and transporters (enzymatic assay)) EUB0000266bCl CACNA1C
[3] = system: Serine/threonine-protein kinase B-raf (Homo sapiens), P15056 [V600E]; assay: (§1) Selectivity interaction (Kinase panel (Z-LYTE Assay)) EUB0001632a BRAF; settings: at 10 µM
[4] = target: Serine/threonine-protein kinase B-raf (Homo sapiens) (UniProt P15056); assay: as §1; settings: at 10 µM
[5] = target: T1, Serine/threonine-protein kinase Nek9 (Homo sapiens) (UniProt Q8TD19); assay: Selectivity interaction (ActivX KiNativ screen (kinase selectivity in THP-1 cell lysates)) EUB0000639a NEK9; assay type: subcellular; settings: lysate
T1 sequence (whole entry): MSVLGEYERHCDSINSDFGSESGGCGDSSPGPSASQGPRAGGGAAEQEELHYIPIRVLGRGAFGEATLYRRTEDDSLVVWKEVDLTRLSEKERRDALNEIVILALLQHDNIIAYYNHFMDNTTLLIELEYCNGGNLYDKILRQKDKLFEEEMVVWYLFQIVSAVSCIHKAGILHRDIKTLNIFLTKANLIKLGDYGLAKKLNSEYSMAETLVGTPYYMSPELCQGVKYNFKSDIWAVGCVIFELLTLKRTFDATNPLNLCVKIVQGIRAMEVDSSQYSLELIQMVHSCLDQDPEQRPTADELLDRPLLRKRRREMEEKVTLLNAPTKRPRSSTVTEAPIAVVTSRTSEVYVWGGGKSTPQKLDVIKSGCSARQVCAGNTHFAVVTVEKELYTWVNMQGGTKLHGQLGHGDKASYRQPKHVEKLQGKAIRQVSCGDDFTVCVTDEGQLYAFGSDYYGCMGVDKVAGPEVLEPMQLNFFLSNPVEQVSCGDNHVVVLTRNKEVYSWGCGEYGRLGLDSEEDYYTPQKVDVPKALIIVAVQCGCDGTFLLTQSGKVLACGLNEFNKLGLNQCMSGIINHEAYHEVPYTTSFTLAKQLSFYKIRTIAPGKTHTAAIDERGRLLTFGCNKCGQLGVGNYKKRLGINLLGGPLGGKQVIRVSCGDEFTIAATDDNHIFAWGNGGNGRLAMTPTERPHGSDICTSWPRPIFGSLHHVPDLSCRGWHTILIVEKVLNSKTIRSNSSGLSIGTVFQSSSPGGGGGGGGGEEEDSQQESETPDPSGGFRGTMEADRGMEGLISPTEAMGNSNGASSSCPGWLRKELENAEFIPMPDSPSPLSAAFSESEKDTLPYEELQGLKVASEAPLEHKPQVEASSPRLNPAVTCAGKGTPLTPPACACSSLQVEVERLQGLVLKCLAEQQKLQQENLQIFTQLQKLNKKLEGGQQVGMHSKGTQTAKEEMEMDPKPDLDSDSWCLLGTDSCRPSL

[6] = target: Serine/threonine-protein kinase 25 (Homo sapiens) (UniProt O00506); assay: Selectivity interaction (ActivX KiNativ screen (kinase selectivity in THP-1 cell lysates)) EUB0000639a STK25; assay type: subcellular; settings: lysate
[7] = target: 5-hydroxytryptamine receptor 1B (Homo sapiens) (UniProt P28222); assay: Selectivity interaction (Panel of kinases, GPCRs, ion channels and transporters (enzymatic assay)) EUB0000223bCl HTR1B
[8] = target: T2, Cyclin-dependent kinase-like 5 (Homo sapiens) (UniProt O76039); assay: Selectivity interaction (KinomeScan (DiscoverX)) EUB0000595a CDKL5; settings: at 10 µM
T2 sequence (whole entry): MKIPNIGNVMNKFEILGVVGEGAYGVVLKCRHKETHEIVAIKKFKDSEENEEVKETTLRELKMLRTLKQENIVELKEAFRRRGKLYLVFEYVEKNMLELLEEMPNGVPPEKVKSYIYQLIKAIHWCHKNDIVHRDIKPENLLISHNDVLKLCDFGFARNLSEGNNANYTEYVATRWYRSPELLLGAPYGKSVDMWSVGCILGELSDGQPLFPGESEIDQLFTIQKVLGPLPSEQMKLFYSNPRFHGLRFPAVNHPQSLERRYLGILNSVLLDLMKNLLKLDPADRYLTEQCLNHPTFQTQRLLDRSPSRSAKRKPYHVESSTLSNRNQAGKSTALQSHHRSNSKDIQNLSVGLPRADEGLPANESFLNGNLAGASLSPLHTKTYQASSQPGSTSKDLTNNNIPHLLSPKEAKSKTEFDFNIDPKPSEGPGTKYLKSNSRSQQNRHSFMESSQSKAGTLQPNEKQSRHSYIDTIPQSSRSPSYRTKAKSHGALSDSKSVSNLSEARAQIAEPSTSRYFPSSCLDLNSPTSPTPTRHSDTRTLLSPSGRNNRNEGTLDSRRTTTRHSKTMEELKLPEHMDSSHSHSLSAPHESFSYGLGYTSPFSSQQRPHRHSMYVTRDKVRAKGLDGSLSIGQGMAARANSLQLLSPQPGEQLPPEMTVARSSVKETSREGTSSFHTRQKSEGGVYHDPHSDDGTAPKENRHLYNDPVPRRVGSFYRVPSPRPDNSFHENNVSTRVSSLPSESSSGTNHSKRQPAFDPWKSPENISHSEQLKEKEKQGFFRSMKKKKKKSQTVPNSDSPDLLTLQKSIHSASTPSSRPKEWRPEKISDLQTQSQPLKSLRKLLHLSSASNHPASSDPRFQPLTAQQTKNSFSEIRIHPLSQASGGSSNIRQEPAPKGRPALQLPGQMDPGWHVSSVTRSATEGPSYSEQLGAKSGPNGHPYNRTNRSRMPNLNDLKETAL

[9] = target: Proto-oncogene tyrosine-protein kinase Src (Homo sapiens, UniProt P12931); assay: Selectivity interaction (KinomeScan (DiscoverX)) EUB0000045b SRC
[10] = target: Serine/threonine-protein kinase 35 (Homo sapiens) (UniProt Q8TDR2); assay: Selectivity interaction (KinomeScan (DiscoverX)) EUB0000618a STK35; settings: at 10 µM
[11] = target: Tyrosine-protein kinase CSK (Homo sapiens) (UniProt P41240); assay: Selectivity interaction (Kinase screening (Nanosyn)) EUB0000604a CSK
Chain of Tyrosine-protein kinase CSK (Homo sapiens) (P41240 2-450 limits assumed): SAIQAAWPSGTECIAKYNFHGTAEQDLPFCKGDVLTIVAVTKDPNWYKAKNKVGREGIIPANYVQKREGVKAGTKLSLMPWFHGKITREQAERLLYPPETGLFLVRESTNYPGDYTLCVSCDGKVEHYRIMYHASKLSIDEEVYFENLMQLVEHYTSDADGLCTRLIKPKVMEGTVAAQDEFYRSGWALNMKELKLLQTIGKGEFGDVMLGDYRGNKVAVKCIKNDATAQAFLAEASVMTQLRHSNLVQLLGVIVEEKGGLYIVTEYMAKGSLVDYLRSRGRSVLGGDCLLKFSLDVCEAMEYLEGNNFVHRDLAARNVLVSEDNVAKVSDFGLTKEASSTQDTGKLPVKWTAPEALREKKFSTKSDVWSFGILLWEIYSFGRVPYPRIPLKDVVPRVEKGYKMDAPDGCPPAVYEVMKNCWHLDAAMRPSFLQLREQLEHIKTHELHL

Chain of Serine/threonine-protein kinase 25 (Homo sapiens) (O00506 whole entry, looked up): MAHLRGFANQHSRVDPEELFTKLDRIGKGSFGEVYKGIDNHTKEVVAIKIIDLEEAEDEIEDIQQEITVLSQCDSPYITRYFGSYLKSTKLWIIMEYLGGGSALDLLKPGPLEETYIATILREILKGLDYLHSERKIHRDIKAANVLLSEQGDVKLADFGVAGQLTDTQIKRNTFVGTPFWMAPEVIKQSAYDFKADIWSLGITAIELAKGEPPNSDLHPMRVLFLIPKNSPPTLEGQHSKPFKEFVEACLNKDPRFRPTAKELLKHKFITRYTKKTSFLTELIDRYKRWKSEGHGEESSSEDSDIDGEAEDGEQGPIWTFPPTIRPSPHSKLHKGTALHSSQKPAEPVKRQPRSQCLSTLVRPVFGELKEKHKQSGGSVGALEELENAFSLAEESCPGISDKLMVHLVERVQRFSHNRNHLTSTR
Chain of Proto-oncogene tyrosine-protein kinase Src (P12931 2-536 limits assumed): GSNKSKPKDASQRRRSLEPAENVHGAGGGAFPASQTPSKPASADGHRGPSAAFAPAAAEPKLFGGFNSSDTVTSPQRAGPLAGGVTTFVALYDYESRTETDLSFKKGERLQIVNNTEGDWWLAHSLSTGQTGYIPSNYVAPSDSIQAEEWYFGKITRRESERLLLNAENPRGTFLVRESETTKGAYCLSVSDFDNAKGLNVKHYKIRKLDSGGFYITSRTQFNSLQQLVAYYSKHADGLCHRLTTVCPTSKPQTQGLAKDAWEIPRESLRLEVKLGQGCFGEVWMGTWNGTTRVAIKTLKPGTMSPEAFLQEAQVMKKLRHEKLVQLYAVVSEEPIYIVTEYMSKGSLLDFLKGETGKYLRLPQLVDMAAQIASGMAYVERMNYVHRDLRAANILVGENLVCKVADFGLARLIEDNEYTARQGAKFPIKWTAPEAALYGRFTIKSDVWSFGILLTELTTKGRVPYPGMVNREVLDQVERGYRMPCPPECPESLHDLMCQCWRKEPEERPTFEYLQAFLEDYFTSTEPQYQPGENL
Chain of Serine/threonine-protein kinase 35 (Homo sapiens) (Q8TDR2 whole entry): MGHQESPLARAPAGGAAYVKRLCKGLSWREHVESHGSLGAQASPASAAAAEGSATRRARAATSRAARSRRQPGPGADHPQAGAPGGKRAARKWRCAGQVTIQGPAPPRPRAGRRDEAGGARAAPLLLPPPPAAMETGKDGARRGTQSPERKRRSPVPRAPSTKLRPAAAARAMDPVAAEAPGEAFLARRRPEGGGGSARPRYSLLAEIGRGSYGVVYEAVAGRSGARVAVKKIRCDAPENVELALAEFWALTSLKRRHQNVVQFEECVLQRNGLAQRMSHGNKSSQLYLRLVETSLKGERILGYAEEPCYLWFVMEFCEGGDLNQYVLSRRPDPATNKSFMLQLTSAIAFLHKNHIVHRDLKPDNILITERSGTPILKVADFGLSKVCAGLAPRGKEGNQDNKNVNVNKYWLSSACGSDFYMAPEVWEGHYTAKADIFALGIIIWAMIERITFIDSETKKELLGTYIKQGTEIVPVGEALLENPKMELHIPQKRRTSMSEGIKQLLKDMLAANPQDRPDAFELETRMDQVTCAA
Chain of Serine/threonine-protein kinase B-raf (Homo sapiens), P15056 [V600E] (P15056 whole entry V600E): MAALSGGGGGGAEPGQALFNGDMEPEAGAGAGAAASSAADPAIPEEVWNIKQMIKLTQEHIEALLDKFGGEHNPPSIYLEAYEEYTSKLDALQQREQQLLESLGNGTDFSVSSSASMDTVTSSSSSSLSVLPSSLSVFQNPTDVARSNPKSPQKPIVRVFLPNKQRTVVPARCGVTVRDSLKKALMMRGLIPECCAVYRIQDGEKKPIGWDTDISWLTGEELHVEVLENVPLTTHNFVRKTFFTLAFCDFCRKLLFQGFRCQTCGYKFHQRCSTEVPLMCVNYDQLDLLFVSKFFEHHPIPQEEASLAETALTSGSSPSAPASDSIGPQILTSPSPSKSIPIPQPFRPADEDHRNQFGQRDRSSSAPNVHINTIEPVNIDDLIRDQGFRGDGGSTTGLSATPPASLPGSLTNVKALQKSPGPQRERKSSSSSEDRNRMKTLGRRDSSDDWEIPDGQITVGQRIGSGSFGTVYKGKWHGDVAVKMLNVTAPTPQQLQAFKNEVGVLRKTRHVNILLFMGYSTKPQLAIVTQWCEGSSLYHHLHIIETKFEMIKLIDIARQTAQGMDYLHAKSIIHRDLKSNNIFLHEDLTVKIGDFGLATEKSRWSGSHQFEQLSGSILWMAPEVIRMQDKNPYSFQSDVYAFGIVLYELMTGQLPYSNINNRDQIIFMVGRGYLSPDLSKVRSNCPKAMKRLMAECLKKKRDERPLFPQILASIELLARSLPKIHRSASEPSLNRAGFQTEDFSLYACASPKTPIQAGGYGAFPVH
Chain of Serine/threonine-protein kinase B-raf (Homo sapiens) (P15056 whole entry): as the sequence (P15056 whole entry V600E) above, with E600V counted along it
Chain of L-type calcium channel Cav1.2 (CACNA1C) (Q13936 whole entry): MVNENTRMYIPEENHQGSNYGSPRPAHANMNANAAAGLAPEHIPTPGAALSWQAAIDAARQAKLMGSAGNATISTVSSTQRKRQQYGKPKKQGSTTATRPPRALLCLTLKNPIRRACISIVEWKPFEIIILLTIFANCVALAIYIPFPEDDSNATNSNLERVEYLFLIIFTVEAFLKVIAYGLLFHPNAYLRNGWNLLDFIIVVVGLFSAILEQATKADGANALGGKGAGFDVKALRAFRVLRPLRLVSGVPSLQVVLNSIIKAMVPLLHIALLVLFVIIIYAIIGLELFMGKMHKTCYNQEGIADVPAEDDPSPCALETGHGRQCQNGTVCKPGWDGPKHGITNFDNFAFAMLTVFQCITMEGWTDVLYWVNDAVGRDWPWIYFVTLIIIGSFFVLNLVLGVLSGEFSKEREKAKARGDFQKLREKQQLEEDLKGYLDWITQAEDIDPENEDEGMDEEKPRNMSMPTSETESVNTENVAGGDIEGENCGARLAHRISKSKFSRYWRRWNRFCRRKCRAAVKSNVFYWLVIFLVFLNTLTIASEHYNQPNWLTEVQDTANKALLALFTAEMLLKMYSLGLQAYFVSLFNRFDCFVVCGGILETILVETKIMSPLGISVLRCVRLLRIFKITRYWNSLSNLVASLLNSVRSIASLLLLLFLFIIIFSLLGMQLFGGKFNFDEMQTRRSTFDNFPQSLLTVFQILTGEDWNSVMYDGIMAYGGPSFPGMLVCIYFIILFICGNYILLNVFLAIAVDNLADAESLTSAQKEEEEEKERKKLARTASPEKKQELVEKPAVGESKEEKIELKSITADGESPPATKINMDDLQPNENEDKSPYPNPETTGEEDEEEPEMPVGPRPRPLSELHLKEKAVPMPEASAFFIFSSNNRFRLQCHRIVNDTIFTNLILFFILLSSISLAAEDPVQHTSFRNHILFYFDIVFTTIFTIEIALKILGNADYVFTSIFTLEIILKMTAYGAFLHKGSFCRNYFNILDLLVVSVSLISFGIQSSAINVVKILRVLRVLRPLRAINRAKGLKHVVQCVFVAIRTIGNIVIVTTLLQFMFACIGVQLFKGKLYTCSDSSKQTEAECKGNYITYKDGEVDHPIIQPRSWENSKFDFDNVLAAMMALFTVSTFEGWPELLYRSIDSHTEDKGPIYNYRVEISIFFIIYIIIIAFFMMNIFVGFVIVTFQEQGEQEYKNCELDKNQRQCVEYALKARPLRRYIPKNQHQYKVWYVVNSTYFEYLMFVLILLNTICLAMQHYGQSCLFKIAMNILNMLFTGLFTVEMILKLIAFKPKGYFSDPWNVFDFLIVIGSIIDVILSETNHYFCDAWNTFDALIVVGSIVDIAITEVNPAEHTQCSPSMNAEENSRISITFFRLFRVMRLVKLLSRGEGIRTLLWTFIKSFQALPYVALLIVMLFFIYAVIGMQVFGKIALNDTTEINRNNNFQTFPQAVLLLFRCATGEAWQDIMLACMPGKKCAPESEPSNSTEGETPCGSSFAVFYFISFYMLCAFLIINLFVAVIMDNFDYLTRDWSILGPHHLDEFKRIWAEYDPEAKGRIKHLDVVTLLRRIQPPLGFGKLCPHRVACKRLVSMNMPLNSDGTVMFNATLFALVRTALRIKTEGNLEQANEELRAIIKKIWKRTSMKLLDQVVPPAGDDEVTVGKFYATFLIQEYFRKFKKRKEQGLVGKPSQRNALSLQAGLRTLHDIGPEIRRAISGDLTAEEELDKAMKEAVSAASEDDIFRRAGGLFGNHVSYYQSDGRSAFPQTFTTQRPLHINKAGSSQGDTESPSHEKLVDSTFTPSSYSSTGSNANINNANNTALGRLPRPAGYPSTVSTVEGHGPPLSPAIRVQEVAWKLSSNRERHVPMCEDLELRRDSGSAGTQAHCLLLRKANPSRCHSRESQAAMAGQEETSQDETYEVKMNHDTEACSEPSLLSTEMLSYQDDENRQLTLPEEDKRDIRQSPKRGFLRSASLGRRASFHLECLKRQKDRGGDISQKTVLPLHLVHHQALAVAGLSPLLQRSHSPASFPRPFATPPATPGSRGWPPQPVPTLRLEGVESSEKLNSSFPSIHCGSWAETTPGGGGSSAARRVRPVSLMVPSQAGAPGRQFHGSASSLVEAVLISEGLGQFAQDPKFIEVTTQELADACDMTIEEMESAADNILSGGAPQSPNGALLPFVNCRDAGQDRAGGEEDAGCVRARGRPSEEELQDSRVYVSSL

CCC(=O)N1CCN(c2ccc(-n3c(=O)ccc4cnc5ccc(-c6cnc7ccccc7c6)cc5c43)cc2C(F)(F)F)CC1 showed a % of control [1] of 100%.
CCn1c(-c2nc3cc(C(=O)N4CCCC(N)C4)ccc3n2C)cc2ccccc21 (stereo not given) was tested, and the XC50 [2] was over 15.8 µM.
Work on Cn1cc(-n2cnc3c(NCc4nc5cc(Cl)c(Cl)cc5[nH]4)nc(N4CCOCC4)nc32)cn1 yielded a % of control [3] of 46.2% and a % of control [4] of -4.02%.
CC[C@@H]1[C@H](F)C(=O)N[C@@H]1COc1nccc2cc(C(N)=O)c(OC)cc12 [ZIMLOVISERTIB] gave a % of inhibition ([5]; at 0.01 µM) of 0.3%, a % of inhibition ([5]; at 0.04 µM) of -3.6% and a % of inhibition ([5]; at 0.2 µM) of -11.2%. For the same compound, the % of inhibition ([5]; at 1 µM) was 7.7%, the % of inhibition ([5]; at 5 µM) was 0.4% and the % of inhibition ([6]; at 0.01 µM) was 19.6%. For the same compound, the % of inhibition ([6]; at 0.04 µM) was -3.8%, the % of inhibition ([6]; at 0.2 µM) was -4.9% and the % of inhibition ([6]; at 1 µM) was -9.2%. The % of inhibition ([6]; at 5 µM) was 21.8%.
COc1cc(C(=O)N2CC[C@@H](O)[C@@H](N)C2)cc2nc(-c3cc4ccccc4n3CC3CC3)n(C)c12 was tested, and the pXC50 [7] was 4.7 M.
COCC(=O)NC/C=C/c1ccc2ncnc(Nc3ccc(Oc4ccc(C)nc4)c(C)c3)c2c1 [CP-724714] showed a % of control [8] of 100%.
C=CC(=O)Nc1cc(-n2c(=O)ccc3cnc4ccc(-c5ccc(NS(C)(=O)=O)cc5)cc4c32)ccc1C gave a % of control ([9]; at 1 µM) of 92% and a % of control ([9]; at 10 µM) of 100%.
For O[C@H]1CC[C@H](Nc2ncc3nc(Nc4c(F)cc(F)cc4F)n([C@H]4CCOC4)c3n2)CC1, the % of control [10] was 100%.
Cc1cnc(Nc2ccc(F)cc2Cl)nc1-c1c[nH]c(C(=O)N[C@H](CO)c2cccc(Cl)c2)c1 showed a % of inhibition [11] of 3%.
